Measured values: PubChem BioAssay AID2060897 (Molecular Pharmacology Branch, DTP, NCI, 2025)

System: 966289-007-R4-J1-PDC complex spheroid viability
Test: Anticancer human tumor 966289-007-R4-J1-PDC patient-derived pancreatic adenocarcinoma cell line growth inhibition [RAS]
Details: for IC50: curve of first compound; for viability, T/C: stronger effect = lower value
Outline: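 Agents were tested in combination matrices in half-log decrements from a top concentration at or near clinical Cmax (10 microM if undetermined). Targets were multi-cell spheroids of tumour lines plus HUVEC and MSC stromal cells.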

[1] = second compound 0.0316 µM, first compound 0.00316 µM
[2] = second compound 0.0316 µM, first compound 0.01 µM
[3] = second compound 0.0316 µM, first compound 0.0316 µM
[4] = second compound 0.0316 µM, first compound 0.1 µM
[5] = second compound 0.0316 µM, first compound 0.316 µM
[6] = second compound 0.0316 µM, first compound 1 µM
[7] = second compound 0.1 µM, first compound 0.00316 µM
[8] = second compound 0.1 µM, first compound 0.01 µM
[9] = second compound 0.1 µM, first compound 0.0316 µM
[10] = second compound 0.1 µM, first compound 0.1 µM
[11] = second compound 0.1 µM, first compound 0.316 µM
[12] = second compound 0.1 µM, first compound 1 µM
[13] = second compound 0.316 µM, first compound 0.00316 µM
[14] = second compound 0.316 µM, first compound 0.01 µM
[15] = second compound 0.316 µM, first compound 0.0316 µM
[16] = second compound 0.316 µM, first compound 0.1 µM
[17] = second compound 0.316 µM, first compound 0.316 µM
[18] = second compound 0.316 µM, first compound 1 µM
[19] = second compound 1 µM, first compound 0.00316 µM
[20] = second compound 1 µM, first compound 0.01 µM
[21] = second compound 1 µM, first compound 0.0316 µM
[22] = second compound 1 µM, first compound 0.1 µM
[23] = second compound 1 µM, first compound 0.316 µM
[24] = second compound 1 µM, first compound 1 µM
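Further: spheroids exposed to agents for one week before readout.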
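Wherever viability, T/C is given: percent viability relative to DMSO vehicle control wells as 100%.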

Q: With `Nc1ccn(C2OC(CO)C(O)C2(F)F)c(=O)n1` (centres undefined) + C=CC(=O)N1CCN(c2nc(OCC3CCCN3C)nc3c(F)c(-c4nc(N)cc(C)c4C(F)(F)F)c(Cl)cc23)C(C)C1 as the compound, how does the IC50 (second compound 0.00316 µM) read?
A: 6.89 nM

Q: What about the IC50 (second compound 0.01 µM) of the same compound?
A: 8.14 nM

Q: What about the IC50 (second compound 0.0316 µM) of the same compound?
A: 6.88 nM

Q: And the IC50 (second compound 0.1 µM)?
A: 6.58 nM

Q: What about the IC50 (second compound 0.316 µM) of the same compound?
A: 6.55 nM

Q: What about the IC50 (second compound 1 µM) of the same compound?
A: 6.83 nM

Q: And the viability, T/C (second compound 0.00316 µM, first compound 0.00316 µM)?
A: 108%

Q: What about the viability, T/C (second compound 0.00316 µM, first compound 0.01 µM) of the same compound?
A: 22.2%

Q: What about the viability, T/C (second compound 0.00316 µM, first compound 0.0316 µM) of the same compound?
A: 1.32%

Q: What about the viability, T/C (second compound 0.00316 µM, first compound 0.1 µM) of the same compound?
A: 1.25%

Q: What about the viability, T/C (second compound 0.00316 µM, first compound 0.316 µM) of the same compound?
A: 1.36%

Q: What about the viability, T/C (second compound 0.00316 µM, first compound 1 µM) of the same compound?
A: 1.34%

Q: And the viability, T/C (second compound 0.01 µM, first compound 0.00316 µM)?
A: 113%

Q: What about the viability, T/C (second compound 0.01 µM, first compound 0.01 µM) of the same compound?
A: 36.4%

Q: And the viability, T/C (second compound 0.01 µM, first compound 0.0316 µM)?
A: 1.5%

Q: What about the viability, T/C (second compound 0.01 µM, first compound 0.1 µM) of the same compound?
A: 1.37%

Q: And the viability, T/C (second compound 0.01 µM, first compound 0.316 µM)?
A: 1.44%

Q: And the viability, T/C (second compound 0.01 µM, first compound 1 µM)?
A: 1.42%

Q: And the viability, T/C [1]?
A: 100%

Q: And the viability, T/C [2]?
A: 25.8%

Q: And the viability, T/C [3]?
A: 1.29%

Q: What about the viability, T/C [4] of the same compound?
A: 1.37%

Q: And the viability, T/C [5]?
A: 1.47%

Q: And the viability, T/C [6]?
A: 1.19%

Q: And the viability, T/C [7]?
A: 89.6%

Q: What about the viability, T/C [8] of the same compound?
A: 27.3%

Q: What about the viability, T/C [9] of the same compound?
A: 1.5%

Q: And the viability, T/C [10]?
A: 1.39%

Q: What about the viability, T/C [11] of the same compound?
A: 1.15%

Q: And the viability, T/C [12]?
A: 1.1%

Q: And the viability, T/C [13]?
A: 93.6%

Q: What about the viability, T/C [14] of the same compound?
A: 24.8%

Q: What about the viability, T/C [15] of the same compound?
A: 1.51%

Q: And the viability, T/C [16]?
A: 1.29%

Q: What about the viability, T/C [17] of the same compound?
A: 1.52%

Q: What about the viability, T/C [18] of the same compound?
A: 1.25%

Q: What about the viability, T/C [19] of the same compound?
A: 93.5%

Q: What about the viability, T/C [20] of the same compound?
A: 28.4%

Q: What about the viability, T/C [21] of the same compound?
A: 1.78%

Q: What about the viability, T/C [22] of the same compound?
A: 1.63%

Q: What about the viability, T/C [23] of the same compound?
A: 1.74%

Q: And the viability, T/C [24]?
A: 1.61%

Q: With `CCN1CCN(Cc2ccc(Nc3ncc(F)c(-c4cc(F)c5nc(C)n(C(C)C)c5c4)n3)nc2)CC1` + C#Cc1c(F)ccc2cc(O)cc(-c3ncc4c(N5CC6CCC(C5)N6)nc(OCC56CCCN5CC(F)C6)nc4c3F)c12 as the compound, how does the IC50 (second compound 0.0316 µM) read?
A: > 1000 nM

Q: And the IC50 (second compound 0.1 µM)?
A: > 1000 nM

Q: What about the IC50 (second compound 0.316 µM) of the same compound?
A: > 1000 nM

Q: And the IC50 (second compound 1 µM)?
A: > 1000 nM

Q: What about the IC50 (second compound 3.16 µM) of the same compound?
A: > 1000 nM

Q: What about the IC50 (second compound 10 µM) of the same compound?
A: > 1000 nM

Q: And the viability, T/C [1]?
A: 121%

Q: And the viability, T/C [2]?
A: 102%

Q: And the viability, T/C [3]?
A: 107%

Q: What about the viability, T/C [4] of the same compound?
A: 92.8%

Q: And the viability, T/C [5]?
A: 92.1%

Q: And the viability, T/C [6]?
A: 71.8%

Q: What about the viability, T/C [7] of the same compound?
A: 113%

Q: What about the viability, T/C [8] of the same compound?
A: 108%

Q: And the viability, T/C [9]?
A: 102%

Q: What about the viability, T/C [10] of the same compound?
A: 82.7%

Q: And the viability, T/C [11]?
A: 92.8%

Q: What about the viability, T/C [12] of the same compound?
A: 71.1%

Q: What about the viability, T/C [13] of the same compound?
A: 114%

Q: What about the viability, T/C [14] of the same compound?
A: 112%

Q: And the viability, T/C [15]?
A: 100%

Q: And the viability, T/C [16]?
A: 95.9%

Q: And the viability, T/C [17]?
A: 84.6%

Q: And the viability, T/C [18]?
A: 69.9%

Q: And the viability, T/C [19]?
A: 104%

Q: And the viability, T/C [20]?
A: 103%

Q: What about the viability, T/C [21] of the same compound?
A: 116%

Q: What about the viability, T/C [22] of the same compound?
A: 103%

Q: What about the viability, T/C [23] of the same compound?
A: 79.4%

Q: And the viability, T/C [24]?
A: 81.7%

Q: What about the viability, T/C (second compound 3.16 µM, first compound 0.00316 µM) of the same compound?
A: 108%

Q: And the viability, T/C (second compound 3.16 µM, first compound 0.01 µM)?
A: 109%

Q: And the viability, T/C (second compound 3.16 µM, first compound 0.0316 µM)?
A: 113%

Q: And the viability, T/C (second compound 3.16 µM, first compound 0.1 µM)?
A: 93.3%

Q: What about the viability, T/C (second compound 3.16 µM, first compound 0.316 µM) of the same compound?
A: 88.8%

Q: What about the viability, T/C (second compound 3.16 µM, first compound 1 µM) of the same compound?
A: 77%

Q: And the viability, T/C (second compound 10 µM, first compound 0.00316 µM)?
A: 108%

Q: And the viability, T/C (second compound 10 µM, first compound 0.01 µM)?
A: 90.3%

Q: And the viability, T/C (second compound 10 µM, first compound 0.0316 µM)?
A: 121%

Q: And the viability, T/C (second compound 10 µM, first compound 0.1 µM)?
A: 89.2%

Q: And the viability, T/C (second compound 10 µM, first compound 0.316 µM)?
A: 93.4%

Q: And the viability, T/C (second compound 10 µM, first compound 1 µM)?
A: 66%
